SMILES strings stand for the structures.

The assay concerns the target PDE1A (Homo sapiens, UniProt P54750). Put plainly: PDE1A enzyme inhibition (fluorescence polarization, FAM-cyclic-3',5'-AMP). The following applies: for IC50: 15 ng/mL PDE1A, 100 nM FAM-cAMP, 25 °C, 1 h; for PDE1A inhibitory activity compared to vinpocetine (in words) / fold improvement in PDE1A inhibitory activity compared to vinpocetine: relative to vinpocetine. In kind it is biochemical. The method, then:
The assays were carried out as described previously. All of the enzymatic reactions were conducted at 25 °C for 1 h. The reaction mixture contains 40 mM MOPS (pH 7.5), 0.5 mM EDTA, 15 mM MgCl2, 0.15 mg/mL BSA, 1 mM DTT, 0.05% Proclin 200, 15 ng/mL PDE1A, and 100 nM FAM-cyclic-3′, 5′-AMP. The compounds were dissolved in 10% DMSO, and 5 μL of the dilution was added to a 50 μL reaction for a final concentration of 1% DMSO in all reactions. The reaction mixture was incubated at 25 °C for 1 h. Then, 100 μL of diluted binding agent was added to each well and incubated at 25 °C for 1 h with slow shaking. The fluorescence polarization of the sample was detected using an excitation filter of 360 nm and an emission filter of 480 nm. The IC50 values were calculated using non-linear regression with a normalized dose–response fit using Prism 6 (GraphPad Software, San Diego, CA, USA).
Background: Polarisation of emitted light reports the rotation of a fluorescent probe.

PDE1A, sequence (P54750 whole entry, species assumed): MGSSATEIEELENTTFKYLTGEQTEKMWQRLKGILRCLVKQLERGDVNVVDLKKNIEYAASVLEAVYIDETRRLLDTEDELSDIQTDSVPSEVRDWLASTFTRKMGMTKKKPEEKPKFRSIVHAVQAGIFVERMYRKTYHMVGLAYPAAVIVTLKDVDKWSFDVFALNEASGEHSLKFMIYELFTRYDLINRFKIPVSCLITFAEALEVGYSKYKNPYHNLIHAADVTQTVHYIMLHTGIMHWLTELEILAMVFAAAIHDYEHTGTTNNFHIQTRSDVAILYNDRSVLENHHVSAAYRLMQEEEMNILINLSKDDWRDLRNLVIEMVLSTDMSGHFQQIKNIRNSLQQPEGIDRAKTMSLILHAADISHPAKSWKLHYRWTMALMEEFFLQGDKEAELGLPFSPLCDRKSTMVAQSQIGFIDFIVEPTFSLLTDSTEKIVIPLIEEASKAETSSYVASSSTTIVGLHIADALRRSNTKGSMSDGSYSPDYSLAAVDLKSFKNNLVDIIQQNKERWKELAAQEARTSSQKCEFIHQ

Take `CC[C@@]12C=C(COCc3ccc(C#N)cc3)n3c4c(c5ccccc53)CCN(CCC1)[C@H]42` [Compound 14, 4-((((41S,13aS)-13a-ethyl-2,3,41,5,6,13a-hexahydro-1H-indolo[3,2,1-de]pyrido[3,2,1-ij][1,5]naphthyridin-12-yl)methoxy)methyl)benzonitrile]: the IC50 (commonly the concentration that gives 50% inhibition) worked out at 15.6 ± 1.09 µM and the “PDE1A inhibitory activity compared to vinpocetine (in words)” value is “superior inhibitory activity compared to vinpocetine”.
With `CC[C@@]12C=C(COCc3ccc4ccccc4c3)n3c4c(c5ccccc53)CCN(CCC1)[C@H]42` [Compound 20, (41S,13aS)-13a-ethyl-12-((naphthalen-2-ylmethoxy)methyl)-2,3,41,5,6,13a-hexahydro-1H-indolo[3,2,1-de]pyrido[3,2,1-ij][1,5]naphthyridine], half-maximal inhibition (IC50) was put at 89.6 ± 5.34 µM.
Same read-out and setting: as for `CC[C@@]12C=C(COCc3cc(C)nn3C)n3c4c(c5ccccc53)CCN(CCC1)[C@H]42` [Compound 24, (41S,13aS)-12-(((1,3-dimethyl-1H-pyrazol-5-yl)methoxy)methyl)-13a-ethyl-2,3,41,5,6,13a-hexahydro-1H-indolo[3,2,1-de]pyrido[3,2,1-ij][1,5]naphthyridine], the figure is 63.7 ± 3.85 µM.
On to `CC[C@@]12C=C(COCc3ccc(F)cc3)n3c4c(c5ccccc53)CCN(CCC1)[C@H]42` [Compound 5, (41S,13aS)-13a-ethyl-12-(((4-fluorobenzyl)oxy)methyl)-2,3,41,5,6,13a-hexahydro-1H-indolo[3,2,1-de]pyrido[3,2,1-ij][1,5]naphthyridine], for which the half-maximal inhibitory concentration (IC50) was determined as 17.2 ± 3.75 µM and the “PDE1A inhibitory activity compared to vinpocetine (in words)” value was “superior inhibitory activity compared to vinpocetine”.
For `CCC12C=C(COCc3cnc(Cl)s3)n3c4c(c5ccccc53)CCN(CCC1)C42` [Compound 25, 2-chloro-5-((((41S,13aS)-13a-ethyl-2,3,41,5,6,13a-hexahydro-1H-indolo[3,2,1-de]pyrido[3,2,1-ij][1,5]naphthyridin-12-yl)methoxy)methyl)thiazole], the concentration for half-maximal inhibition (IC50) is 2.08 ± 0.16 µM, the “PDE1A inhibitory activity compared to vinpocetine (in words)” value is recorded as “superior inhibitory activity compared to vinpocetine” and the “fold improvement in PDE1A inhibitory activity compared to vinpocetine” value is listed as 8 fold.
With `CCOC(=O)C1=C[C@]2(CC)CCCN3CCc4c(n1c1ccccc41)[C@@H]32` [Vinpocetine], inhibition was half-maximal at 17.3 ± 1.21 µM (IC50).
In the case of `CC[C@@]12C=C(COCc3cc(F)cc(F)c3)n3c4c(c5ccccc53)CCN(CCC1)[C@H]42` [Compound 22, (41S,13aS)-12-(((3,5-difluorobenzyl)oxy)methyl)-13a-ethyl-2,3,41,5,6,13a-hexahydro-1H-indolo[3,2,1-de]pyrido[3,2,1-ij][1,5]naphthyridine], the IC50 stood at 46.4 ± 1.94 µM.
On the same count and under the same terms, the figure for `CC[C@@]12C=C(COCc3ccccc3Cl)n3c4c(c5ccccc53)CCN(CCC1)[C@H]42` [Compound 10, (41S,13aS)-12-(((2-chlorobenzyl)oxy)methyl)-13a-ethyl-2,3,41,5,6,13a-hexahydro-1H-indolo[3,2,1-de]pyrido[3,2,1-ij][1,5]naphthyridine] is 35 ± 1.85 µM; for `CC[C@@]12C=C(COCc3ccc(Br)cc3)n3c4c(c5ccccc53)CCN(CCC1)[C@H]42` [Compound 11, (41S,13aS)-12-(((4-bromobenzyl)oxy)methyl)-13a-ethyl-2,3,41,5,6,13a-hexahydro-1H-indolo[3,2,1-de]pyrido[3,2,1-ij][1,5]naphthyridine] it is 54.8 ± 3.42 µM; for `CC[C@@]12C=C(COCc3ccccc3Br)n3c4c(c5ccccc53)CCN(CCC1)[C@H]42` [Compound 13, (41S,13aS)-12-(((2-bromobenzyl)oxy)methyl)-13a-ethyl-2,3,41,5,6,13a-hexahydro-1H-indolo[3,2,1-de]pyrido[3,2,1-ij][1,5]naphthyridine] it is 88.3 ± 3.26 µM.
On the same count and under the same terms, as for `CC[C@@]12C=C(COCc3ccc(Cl)cc3)n3c4c(c5ccccc53)CCN(CCC1)[C@H]42` [Compound 8, (41S,13aS)-12-(((4-chlorobenzyl)oxy)methyl)-13a-ethyl-2,3,41,5,6,13a-hexahydro-1H-indolo[3,2,1-de]pyrido[3,2,1-ij][1,5]naphthyridine], the figure is 48.8 ± 2.55 µM.
With `CCC12C=C(COCc3cccc(C)c3)n3c4c(c5ccccc53)CCN(CCC1)C42` [Compound 4, (41S,13aS)-13a-ethyl-12-(((3-methylbenzyl)oxy)methyl)-2,3,41,5,6,13a-hexahydro-1H-indolo[3,2,1-de]pyrido[3,2,1-ij][1,5]naphthyridine], inhibition was half-maximal at 3.53 ± 0.25 µM (IC50), the “PDE1A inhibitory activity compared to vinpocetine (in words)” value is on record as “superior inhibitory activity compared to vinpocetine” and the “fold improvement in PDE1A inhibitory activity compared to vinpocetine” value was 5 fold.
In the case of `CC[C@@]12C=C(COCc3ccc(C)cc3)n3c4c(c5ccccc53)CCN(CCC1)[C@H]42` [Compound 3, (41S,13aS)-13a-ethyl-12-(((4-methylbenzyl)oxy)methyl)-2,3,41,5,6,13a-hexahydro-1H-indolo[3,2,1-de]pyrido[3,2,1-ij][1,5]naphthyridine], half-maximal inhibition (IC50) required 8.52 ± 0.68 µM and the “PDE1A inhibitory activity compared to vinpocetine (in words)” value is reported as “superior inhibitory activity compared to vinpocetine”.
Consider `CC[C@@]12C=C(COCc3cccc4ccccc34)n3c4c(c5ccccc53)CCN(CCC1)[C@H]42` [Compound 19, (41S,13aS)-13a-ethyl-12-((naphthalen-1-ylmethoxy)methyl)-2,3,41,5,6,13a-hexahydro-1H-indolo[3,2,1-de]pyrido[3,2,1-ij][1,5]naphthyridine], for which the half-maximal inhibitory concentration (IC50) was determined as 54.3 ± 1.84 µM.
Regarding `CC[C@@]12C=C(COCc3cc(C)cc(C)c3)n3c4c(c5ccccc53)CCN(CCC1)[C@H]42` [Compound 21, (41S,13aS)-12-(((3,5-dimethylbenzyl)oxy)methyl)-13a-ethyl-2,3,41,5,6,13a-hexahydro-1H-indolo[3,2,1-de]pyrido[3,2,1-ij][1,5]naphthyridine], inhibition was half-maximal at 10 ± 0.85 µM (IC50) and the “PDE1A inhibitory activity compared to vinpocetine (in words)” value is recorded as “superior inhibitory activity compared to vinpocetine”.
The compound `CC[C@@]12C=C(COCc3ccccc3F)n3c4c(c5ccccc53)CCN(CCC1)[C@H]42` [Compound 7, (41S,13aS)-13a-ethyl-12-(((2-fluorobenzyl)oxy)methyl)-2,3,41,5,6,13a-hexahydro-1H-indolo[3,2,1-de]pyrido[3,2,1-ij][1,5]naphthyridine] gave a 50% inhibitory concentration (IC50) of 28.7 ± 1.15 µM.
On the same count and under the same terms, as for `CC[C@@]12C=C(COCc3cc(Br)cc(Br)c3)n3c4c(c5ccccc53)CCN(CCC1)[C@H]42` [Compound 23, (41S,13aS)-12-(((3,5-dibromobenzyl)oxy)methyl)-13a-ethyl-2,3,41,5,6,13a-hexahydro-1H-indolo[3,2,1-de]pyrido[3,2,1-ij][1,5]naphthyridine], the figure is 58.2 ± 3.2 µM.
Same read-out and setting: the figure for `CC[C@@]12C=C(COCc3cccc(C(F)(F)F)c3)n3c4c(c5ccccc53)CCN(CCC1)[C@H]42` [Compound 17, (41S,13aS)-13a-ethyl-12-(((3-(trifluoromethyl)benzyl)oxy)methyl)-2,3,41,5,6,13a-hexahydro-1H-indolo[3,2,1-de]pyrido[3,2,1-ij][1,5]naphthyridine] is 48.4 ± 1.44 µM.
Consider `CC[C@@]12C=C(COCc3cccc(Br)c3)n3c4c(c5ccccc53)CCN(CCC1)[C@H]42` [Compound 12, (41S,13aS)-12-(((3-bromobenzyl)oxy)methyl)-13a-ethyl-2,3,41,5,6,13a-hexahydro-1H-indolo[3,2,1-de]pyrido[3,2,1-ij][1,5]naphthyridine], for which the half-inhibitory concentration (IC50) turned out to be 12.5 ± 1.06 µM and the “PDE1A inhibitory activity compared to vinpocetine (in words)” value is “superior inhibitory activity compared to vinpocetine”.
The compound `CC[C@@]12C=C(COCc3ccccc3C#N)n3c4c(c5ccccc53)CCN(CCC1)[C@H]42` [Compound 15, 2-((((41S,13aS)-13a-ethyl-2,3,41,5,6,13a-hexahydro-1H-indolo[3,2,1-de]pyrido[3,2,1-ij][1,5]naphthyridin-12-yl)methoxy)methyl)benzonitrile] showed a 50% inhibitory concentration (IC50) of 45.1 ± 2.27 µM.
Still for that read-out and setting: the figure for `CC[C@@]12C=C(COCc3cccc(Cl)c3)n3c4c(c5ccccc53)CCN(CCC1)[C@H]42` [Compound 9, (41S,13aS)-12-(((3-chlorobenzyl)oxy)methyl)-13a-ethyl-2,3,41,5,6,13a-hexahydro-1H-indolo[3,2,1-de]pyrido[3,2,1-ij][1,5]naphthyridine] is 72.1 ± 3.89 µM; for `CC[C@@]12C=C(COCc3ccc(C(F)(F)F)cc3)n3c4c(c5ccccc53)CCN(CCC1)[C@H]42` [Compound 16, (41S,13aS)-13a-ethyl-12-(((4-(trifluoromethyl)benzyl)oxy)methyl)-2,3,41,5,6,13a-hexahydro-1H-indolo[3,2,1-de]pyrido[3,2,1-ij][1,5]naphthyridine] it is 57.7 ± 2.96 µM; for `CC[C@@]12C=C(COCc3ccc(-c4ccccc4)cc3)n3c4c(c5ccccc53)CCN(CCC1)[C@H]42` [Compound 18, (41S,13aS)-12-(([1,1′-biphenyl]-4-ylmethoxy)methyl)-13a-ethyl-2,3,41,5,6,13a-hexahydro-1H-indolo[3,2,1-de]pyrido[3,2,1-ij][1,5]naphthyridine] it is 44.8 ± 2.26 µM.
In the case of `CC[C@@]12C=C(COCc3ccccc3)n3c4c(c5ccccc53)CCN(CCC1)[C@H]42` [Compound 2, (41S,13aS)-12-((benzyloxy)methyl)-13a-ethyl-2,3,41,5,6,13a-hexahydro-1H-indolo[3,2,1-de]pyrido[3,2,1-ij][1,5]naphthyridine], the midpoint of inhibition, the IC50, lay at 19.2 ± 2.25 µM.
`CC[C@@]12C=C(COCc3cccc(F)c3)n3c4c(c5ccccc53)CCN(CCC1)[C@H]42` [Compound 6, (41S,13aS)-13a-ethyl-12-(((3-fluorobenzyl)oxy)methyl)-2,3,41,5,6,13a-hexahydro-1H-indolo[3,2,1-de]pyrido[3,2,1-ij][1,5]naphthyridine] returned an IC50 of 25.6 ± 1.23 µM.

(Values after publication PMC10779641, “Synthesis and Activity Evaluation of Vinpocetine-Derived Indole Alkaloids” (Molecules, 2023).)
